Laboratory results: ChEMBL document CHEMBL1132265, “Synthesis and evaluation of glucocerebrosidase inhibitory activity of anhydro deoxyinositols from (+)-epi- and (-)-vibo-quercitols” (Bioorg Med Chem Lett, 1999)
One block for each compound: values may come before it.

Key:
[1] = molecular target: T1, Lysosomal acid glucosylceramidase (Mus musculus, UniProt P17439); assay: Inhibitory activity against Glucosylceramidase in mouse liver; assay type: tissue-based
T1 sequence (P17439 whole entry): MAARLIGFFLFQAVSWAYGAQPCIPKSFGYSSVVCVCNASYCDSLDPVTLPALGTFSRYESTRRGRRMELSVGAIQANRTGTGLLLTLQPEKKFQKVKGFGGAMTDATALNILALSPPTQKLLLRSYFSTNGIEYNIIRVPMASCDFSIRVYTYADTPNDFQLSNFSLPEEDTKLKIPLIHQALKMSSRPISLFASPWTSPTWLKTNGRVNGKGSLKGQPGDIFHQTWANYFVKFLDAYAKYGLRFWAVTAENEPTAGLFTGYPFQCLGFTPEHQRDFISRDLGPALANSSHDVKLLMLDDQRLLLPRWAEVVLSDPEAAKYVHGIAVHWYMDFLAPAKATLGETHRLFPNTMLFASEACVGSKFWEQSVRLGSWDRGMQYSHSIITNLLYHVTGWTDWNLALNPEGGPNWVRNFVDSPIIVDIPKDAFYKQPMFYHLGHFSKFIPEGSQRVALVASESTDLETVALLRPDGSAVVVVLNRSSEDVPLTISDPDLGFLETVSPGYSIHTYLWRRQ

[2] = molecular target: T1, Lysosomal acid glucosylceramidase; assay: Inhibitory activity against Glucosylceramidase in mouse liver at a concentration of 10e-4 M; NA is inactive; assay type: tissue-based
[3] = molecular target: T1, Lysosomal acid glucosylceramidase; assay: Inhibitory activity against Glucosylceramidase in mouse liver; Significant activity
[4] = molecular target: T2, Galactocerebrosidase (Mus musculus, UniProt P54818); assay: Inhibitory activity against Galactocerebrosidase; NA is not active
T2 sequence (P54818 whole entry): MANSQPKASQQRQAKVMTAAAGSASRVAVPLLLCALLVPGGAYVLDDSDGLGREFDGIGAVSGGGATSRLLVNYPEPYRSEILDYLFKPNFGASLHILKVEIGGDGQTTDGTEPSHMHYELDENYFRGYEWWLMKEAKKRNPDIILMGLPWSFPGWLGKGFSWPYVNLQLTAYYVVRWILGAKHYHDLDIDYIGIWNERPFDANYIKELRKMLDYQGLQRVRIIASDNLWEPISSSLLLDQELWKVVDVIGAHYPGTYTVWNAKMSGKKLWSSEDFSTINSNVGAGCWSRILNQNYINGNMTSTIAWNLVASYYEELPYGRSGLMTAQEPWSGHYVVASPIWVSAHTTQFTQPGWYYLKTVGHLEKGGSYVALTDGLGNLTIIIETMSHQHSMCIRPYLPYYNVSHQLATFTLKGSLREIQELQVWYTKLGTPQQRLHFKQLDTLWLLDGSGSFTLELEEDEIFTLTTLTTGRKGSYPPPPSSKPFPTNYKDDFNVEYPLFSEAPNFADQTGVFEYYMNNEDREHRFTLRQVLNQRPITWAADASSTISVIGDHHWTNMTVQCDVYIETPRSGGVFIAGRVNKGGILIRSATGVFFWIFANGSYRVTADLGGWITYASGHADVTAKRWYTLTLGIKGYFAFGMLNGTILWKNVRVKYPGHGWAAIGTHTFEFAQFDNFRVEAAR

[5] = molecular target: T1, Lysosomal acid glucosylceramidase; assay: Inhibitory activity against Glucosylceramidase in mouse liver relative to compound 5; Active; assay type: tissue-based
[6] = molecular target: T1, Lysosomal acid glucosylceramidase; assay: Specific inhibitory activity against Glucosylceramidase in mouse liver; assay type: tissue-based
[7] = molecular target: T1, Lysosomal acid glucosylceramidase; assay: Specific inhibitory activity against Glucosylceramidase in mouse liver; Significant activity

SMILES: O[C@@H]1[C@H]2O[C@H]2[C@H](O)C[C@H]1O
IC50 [1]: 98 µM

SMILES: O[C@H]1[C@@H]2O[C@@H]2[C@@H](O)C[C@H]1O
IC50 [2]: Not Active

SMILES: O[C@@H]1[C@@H](O)[C@H](O)C[C@H](O)[C@@H]1O
IC50 [3]: Significant activity

SMILES: O[C@@H]1[C@H]2O[C@H]2[C@H](O)C[C@@H]1O
IC50 [2]: Not Active

SMILES: O[C@@H]1[C@H]2O[C@H]2[C@@H](O)C[C@H]1O
IC50 [2]: Not Active

SMILES: O[C@@H]1[C@@H](O)[C@H](O)C[C@@H](O)[C@H]1O
IC50 [3]: Significant activity

SMILES: O[C@H]1[C@H](O)[C@@H](O)[C@@H]2O[C@@H]2[C@@H]1O [CONDURITOL B EPOXIDE]
IC50 [6]: 8.9 µM

SMILES: OC[C@@H]1[C@@H](O)[C@H](O)[C@@H](O)[C@@H]2O[C@H]12 [CYCLOPHELLITOL]
IC50 [7]: Significant activity

Further lines, results first:

IC50 [2]: Not Active
SMILES: O[C@H]1[C@H](O)[C@H](O)C[C@@H]2O[C@H]12

IC50 [2]: Not Active
SMILES: O[C@@H]1[C@H](O)[C@H](O)C[C@H]2O[C@@H]12

IC50 [2]: Not Active
SMILES: O[C@@H]1[C@H](O)[C@H]2O[C@H]2C[C@@H]1O

IC50 [4]: Not Active
IC50 [1]: 0.96 µM
SMILES: O[C@@H]1[C@@H](O)[C@H](O)C[C@H]2O[C@@H]12

IC50 [2]: Not Active
SMILES: O[C@@H]1[C@H](O)[C@H]2O[C@H]2C[C@H]1O

IC50 [5]: Active
SMILES: O[C@@H]1[C@@H](O)[C@H](O)C[C@@H]2O[C@H]12

IC50 [2]: Not Active
SMILES: O[C@H]1[C@H]2O[C@H]2[C@H](O)C[C@H]1O

IC50 [5]: Active
SMILES: O[C@H]1[C@@H]2O[C@@H]2[C@H](O)C[C@@H]1O
